Assay results reported in article PMC9848300, “Discovery of novel enasidenib analogues targeting inhibition of mutant isocitrate dehydrogenase 2 as antileukaemic agents” (Journal of Enzyme Inhibition and Medicinal Chemistry, 2023).

Key:
Assay type in all cases: cell-based
HL-60(TB) = assay: NCI 60 antitumor screening (single dose / five doses); conditions: Homo sapiens; for inhibition at 10 µM: HL-60(TB) (leukaemia), single dose 10 μM, read-out: Growth inhibition percentage (GI %); for GI50: HL-60(TB), five doses (0.01–100 μM), read-out: GI50
SN 12C = assay: as above; conditions: Homo sapiens, SN12C; for inhibition at 10 µM: SN 12C (renal cancer), single dose 10 μM, read-out: Growth inhibition percentage (GI %)
T-47D = assay: as above; conditions: Homo sapiens, T47D; for inhibition at 10 µM: T-47D (breast cancer), single dose 10 μM, read-out: Growth inhibition percentage (GI %); for GI50: T-47D, five doses (0.01–100 μM), read-out: GI50
NCI-H460 = assay: NCI 60 antitumor screening (single dose); conditions: Homo sapiens; NCI-H460 (non-small cell lung cancer), single dose 10 μM; read-out: Growth inhibition percentage (GI %)
Experimental: (§1) Initially, the anticancer effects of target compounds have been assessed at a single (10 μM) dose. The obtained data have been reported as mean-graph of the percent growth (G%) of the treated cancer cells. Percentage growth inhibition (GI%) is calculated (100 − G%) and pronounced in Table 1. […] Target compounds in series (III) with manipulated linkers disclosed lower potency. Superiorly, eight s-triazine derivatives from the three series (6a, 6c, 6d, 7a, 7g, 7i, 7l, and 8b) have shown potent broad-spectrum anticancer activity against most the examined cell lines, whereas most of the remaining triazine derivatives, 20 derivatives, have exerted selective anti-proliferative actions towards certain cancer cell lines (Supplementary).
(§2) The antitumor screening was performed for 60 human cancer cell lines under the protocol of NCI (www.dtp.nci.nih.gov), the Drug Evaluation Branch, Bethesda, MD. All submitted compounds were nominated based on the degree of structural diversity and computer modelling techniques for evaluation of their anticancer activity. The screening process for antineoplastic activity passes through two successive levels, starting with the assessment of target compounds at a single dose of 10 μM against 60 cancer cell lines on nine types of human tumours. These experiments were done on a triplicate following. The output from the single‐dose screening was covered as a mean graph, and then, analysed by the COMPARE program. Finally, the compounds which disclosed subpanel cancer cell growth (G %) equal to or less than 10% in at least eight cancer cell lines get to pass the assessment against the 60 cell lines at five doses (0.01–100 μM). By using GraphPad Prism version 9.0 (Graphpad Software Inc., La Jolla, CA), GI50, TGI, as well as LC50 dose‐response parameters were computed and presented for each compound (Supplementary information)[55–57].

NCI-H322M = assay: NCI 60 antitumor screening (single dose); conditions: Homo sapiens; NCI-H322M (non-small cell lung cancer), single dose 10 μM; read-out: Growth inhibition percentage (GI %)
Experimental: as §1, §2

SF-268 = assay: NCI 60 antitumor screening (single dose); conditions: Homo sapiens; SF-268 (CNS cancer), single dose 10 μM; read-out: Growth inhibition percentage (GI %)
Experimental: as §1, §2

CAKI-1 = assay: NCI 60 antitumor screening (single dose); conditions: Homo sapiens; CAKI-1 (renal cancer), single dose 10 μM; read-out: Growth inhibition percentage (GI %)
Experimental: as §1, §2

MCF7 = assay: NCI 60 antitumor screening (single dose); conditions: Homo sapiens; MCF7 (breast cancer), single dose 10 μM; read-out: Growth inhibition percentage (GI %)
Experimental: as §1, §2

SK-OV-3 = assay: NCI 60 antitumor screening (single dose); conditions: Homo sapiens; SK-OV-3 (ovarian cancer), single dose 10 μM; read-out: Growth inhibition percentage (GI %)
Experimental: as §1, §2

KM 12 = assay: NCI 60 antitumor screening (single dose); conditions: Homo sapiens, KM12; KM 12 (colon cancer), single dose 10 μM; read-out: Growth inhibition percentage (GI %)
Experimental: as §1, §2

NCI-H522 = assay: NCI 60 antitumor screening (single dose); conditions: Homo sapiens; NCI-H522 (non-small cell lung cancer), single dose 10 μM; read-out: Growth inhibition percentage (GI %)
Experimental: as §1, §2

OVCAR-8 = assay: NCI 60 antitumor screening (single dose); conditions: Homo sapiens; OVCAR-8 (ovarian cancer), single dose 10 μM; read-out: Growth inhibition percentage (GI %)
Experimental: as §1, §2

A549/ATCC = assay: NCI 60 antitumor screening (single dose); conditions: Homo sapiens; A549/ATCC (non-small cell lung cancer), single dose 10 μM; read-out: Growth inhibition percentage (GI %)
Experimental: as §1, §2

HS 578T = assay: NCI 60 antitumor screening (single dose); conditions: Homo sapiens; HS 578T (breast cancer), single dose 10 μM; read-out: Growth inhibition percentage (GI %)
Experimental: as §1, §2

OVCAR-3 = assay: NCI 60 antitumor screening (single dose); conditions: Homo sapiens; OVCAR-3 (ovarian cancer), single dose 10 μM; read-out: Growth inhibition percentage (GI %)
Experimental: as §1, §2

OVCAR-5 = assay: NCI 60 antitumor screening (single dose); conditions: Homo sapiens; OVCAR-5 (ovarian cancer), single dose 10 μM; read-out: Growth inhibition percentage (GI %)
Experimental: as §1, §2

U251 = assay: NCI 60 antitumor screening (single dose); conditions: Homo sapiens, U-251; U251 (CNS cancer), single dose 10 μM; read-out: Growth inhibition percentage (GI %)
Experimental: as §1, §2

M14 = assay: NCI 60 antitumor screening (single dose); conditions: Homo sapiens; M14 (melanoma), single dose 10 μM; read-out: Growth inhibition percentage (GI %)
Experimental: as §1, §2

OVCAR-4 = assay: NCI 60 antitumor screening (single dose); conditions: Homo sapiens; OVCAR-4 (ovarian cancer), single dose 10 μM; read-out: Growth inhibition percentage (GI %)
Experimental: as §1, §2

NCI-H23 = assay: NCI 60 antitumor screening (single dose); conditions: Homo sapiens; NCI-H23 (non-small cell lung cancer), single dose 10 μM; read-out: Growth inhibition percentage (GI %)
Experimental: as §1, §2

NCI-H226 = assay: NCI 60 antitumor screening (single dose); conditions: Homo sapiens; NCI-H226 (non-small cell lung cancer), single dose 10 μM; read-out: Growth inhibition percentage (GI %)
Experimental: as §1, §2

HOP-62 = assay: NCI 60 antitumor screening (single dose); conditions: Homo sapiens; HOP-62 (non-small cell lung cancer), single dose 10 μM; read-out: Growth inhibition percentage (GI %)
Experimental: as §1, §2

PC-3 = assay: NCI 60 antitumor screening (single dose); conditions: Homo sapiens; PC-3 (prostate cancer), single dose 10 μM; read-out: Growth inhibition percentage (GI %)
Experimental: as §1, §2

SK-MEL-28 = assay: NCI 60 antitumor screening (single dose / five doses); conditions: Homo sapiens; for inhibition at 10 µM: SK-MEL-28 (melanoma), single dose 10 μM, read-out: Growth inhibition percentage (GI %)
SK-MEL-5 = assay: as above; conditions: Homo sapiens; for inhibition at 10 µM: SK-MEL-5 (melanoma), single dose 10 μM, read-out: Growth inhibition percentage (GI %); for GI50: SK-MEL-5, five doses (0.01–100 μM), read-out: GI50
DU-145 = assay: as above; conditions: Homo sapiens; for inhibition at 10 µM: DU-145 (prostate cancer), single dose 10 μM, read-out: Growth inhibition percentage (GI %); for GI50: DU-145, five doses (0.01–100 μM), read-out: GI50
MOLT-4 = assay: as above; conditions: Homo sapiens; for inhibition at 10 µM: MOLT-4 (leukaemia), single dose 10 μM, read-out: Growth inhibition percentage (GI %); for GI50: MOLT-4, five doses (0.01–100 μM), read-out: GI50

Row | SMILES | inhibition at 10 µM (HL-60(TB)) [%] | inhibition at 10 µM (SN 12C) [%] | inhibition at 10 µM (T-47D) [%] | inhibition at 10 µM (NCI-H460) [%] | inhibition at 10 µM (NCI-H322M) [%] | inhibition at 10 µM (SF-268) [%] | inhibition at 10 µM (CAKI-1) [%] | inhibition at 10 µM (MCF7) [%] | inhibition at 10 µM (SK-OV-3) [%] | inhibition at 10 µM (KM 12) [%] | inhibition at 10 µM (NCI-H522) [%] | inhibition at 10 µM (OVCAR-8) [%] | inhibition at 10 µM (A549/ATCC) [%] | inhibition at 10 µM (HS 578T) [%] | inhibition at 10 µM (OVCAR-3) [%] | inhibition at 10 µM (OVCAR-5) [%] | inhibition at 10 µM (U251) [%] | inhibition at 10 µM (M14) [%] | inhibition at 10 µM (OVCAR-4) [%] | inhibition at 10 µM (NCI-H23) [%] | further results
1 | Clc1cccc(/C=N/Nc2nc(N/N=C/c3cccc(Cl)c3)nc(N3CCOCC3)n2)c1 [compound 6d, 2,4-Bis[(E)-2-[(3-chlorophenyl)methylidene]hydrazin-1-yl]-6-(morpholin-4-yl)-1,3,5-triazine] | 110 | 40.1 | 31.5 | 21.8 | 46.2 | 34.1 | 62.4 | 57 | -29.6 | 69.8 | 86.1 | 50.5 | 53.4 | 32.5 | 43.7 | 4.53 | 39.6 | 64.8 | 33.6 | 29.4 | GI50 (HL-60(TB)): 500 nM; GI50 (SN 12C; SN 12C, five doses (0.01–100 μM), read-out: GI50): 4990 nM; GI50 (T-47D): 3540 nM; inhibition at 10 µM (NCI-H226): 39.6%; inhibition at 10 µM (HOP-62): -9.83%; inhibition at 10 µM (PC-3): 58.5%; inhibition at 10 µM (SK-MEL-28): 70.2%; GI50 (SK-MEL-28; SK-MEL-28, five doses (0.01–100 μM), read-out: GI50): 2860 nM; inhibition at 10 µM (SK-MEL-5): 55.9%; GI50 (SK-MEL-5): 1720 nM; inhibition at 10 µM (DU-145): 57.5%; GI50 (DU-145): 2620 nM; inhibition at 10 µM (MOLT-4): 94%; GI50 (MOLT-4): 1490 nM
2 | Brc1cccc(/C=N/Nc2nc(N/N=C/c3cccc(Br)c3)nc(N3CCOCC3)n2)c1 [compound 6c, 2,4-Bis[(E)-2-[(3-bromophenyl)methylidene]hydrazin-1-yl]-6-(morpholin-4-yl)-1,3,5-triazine] | 110 | 55.8 | 43.5 | 58.8 | 47.2 | 31.6 | 84.6 | 77.9 | 7.13 | 69.7 | 66.5 | 62.6 | 57.4 | 33.8 | 57.5 | 27.6 | 57.3 | 68.3 | 45.8 | 56.9 | GI50 (HL-60(TB)): 150 nM; GI50 (T-47D): 3940 nM; inhibition at 10 µM (NCI-H226): 56.7%; inhibition at 10 µM (HOP-62): 47.7%; inhibition at 10 µM (PC-3): 63.5%; inhibition at 10 µM (SK-MEL-28): 82.9%; inhibition at 10 µM (SK-MEL-5): 79.3%; GI50 (SK-MEL-5): 1990 nM; inhibition at 10 µM (DU-145): 72.7%; GI50 (DU-145): 1310 nM; inhibition at 10 µM (MOLT-4): 89.8%; GI50 (MOLT-4): 680 nM
3 | Oc1ccc(/C=N/Nc2nc(N/N=C/c3ccc(O)c(O)c3)nc(N3CCCCC3)n2)cc1O [compound 7j, 4-[(1e)-(2-{4-[(E)-2-[(3,4-Dihydroxyphenyl)methylidene]hydrazin-1-yl]-6-(piperidin-1-yl)-1,3,5-triazin-2-yl}hydrazin-1-ylidene)methyl]benzene-1,2-diol] | -1.96 | 4.32 | 16.9 | 0.77 | -2.3 | -2.56 | 13.4 | 4.27 | -24.8 | -0.29 | 6.61 | 1.94 | -0.07 | -6.08 | 5.01 | -13.1 | 9.07 | -3.18 | -0.74 | 0.5 | inhibition at 10 µM (NCI-H226): 4.47%; inhibition at 10 µM (HOP-62): -10.5%; inhibition at 10 µM (PC-3): 9.42%; inhibition at 10 µM (SK-MEL-28): -7.04%; inhibition at 10 µM (SK-MEL-5): 4.85%; inhibition at 10 µM (DU-145): 0.25%; inhibition at 10 µM (MOLT-4): 6.3%
4 | Brc1ccccc1/C=N/Nc1nc(N/N=C/c2ccccc2Br)nc(N2CCCCC2)n1 [compound 7b, 2,4-Bis[(E)-2-[(2-Bromophenyl)methylidene]hydrazin-1-yl]-6-(piperidin-1-yl)-1,3,5-triazine] | -3.87 | 5.69 | 11.2 | 0.96 | 3.65 | -1.64 | 3.19 | 13.2 | -0.76 | 2 | 6.02 | -1.21 | -2.25 | -5.25 | -6.1 | 0.1 | -2.15 | -4.12 | 0.53 | 4.71 | inhibition at 10 µM (NCI-H226): 10.9%; inhibition at 10 µM (HOP-62): 1.14%; inhibition at 10 µM (PC-3): 5.07%; inhibition at 10 µM (SK-MEL-28): -0.81%; inhibition at 10 µM (SK-MEL-5): 5.12%; inhibition at 10 µM (DU-145): -4.47%; inhibition at 10 µM (MOLT-4): -12.3%
